Test results as given in patent US20260217701A1, “SELECTIVE BET INHIBITORS AND USES THEREOF” (Tay Therapeutics Limited, priority 2022, published 2026).
Read-outs that look alike come from different tables or passages of the source.

Assay: Rat PK study #3 (ABBV-744 IV 1 mg/kg and PO 5 mg/kg)
Type: in vivo, SD rats
Details: male, Sprague-Dawley, rat, plasma, SD rats, DMSO/PEG-400/Milli-Q water formulation; for C0: read-out: C0; for MRT inf: read-out: MRTInf_obs; for Tmax: read-out: Tmax
Experimental: For the third rat pharmacokinetic study, the pharmacokinetics of ABBV-744 were assessed in male SD rats for comparison to Compound A. ABBV-744 was prepared in a formulation of 5% DMSO, 40% PEG-400, and 55% Milli-Q water (see Table 2D for formulation) and delivered to animals orally (PO) at a dose of 5 mg/kg, or intravenously (IV) at a dose of 1 mg/kg. Animals in each group (n=3) were then monitored over a 24-hour period.
Blood samples (~0.2 mL) were collected according to a schedule (IV administration: 0.033, 0.083, 0.25, 0.5, 1, 2, 4, and 8 h following the initial dosing; PO administration: 0.083, 0.25, 0.5, 1, 2, 4, 8, and 24 h following the initial dosing) by jugular vein by cannulation except for the dosing vein (for IV group), and EDTA-K2 was used as anticoagulant. Within 30 minutes of collection, the samples were centrifuged at approximately 4000 times g-force for 5 minutes at 4° C. to obtain blood plasma. The plasma samples were immediately divided into two aliquots (~75 µL each), transferred to a cryogenic vial, and stored in a freezer at −75±15° C. prior to analysis.
The concentration of ABBV-744 in plasma samples was determined by liquid chromatography-mass spectrometry (LC-MS/MS) using a Shimadzu HPLC(DGU-405; LC-40D XS CN; SIL-40C XSCN; Plate Changer CN; CTO-40C CN; and CBM-40 CN) and an AB API 5500+LC/MS/MS instrument. Samples were analyzed on an Agilent Poroshell Bonus RP 2.7 μm (50×2.1 mm) column. Solution A in the mobile phase was 95% water (0.1% formic acid) and solution B was 95% acetonitrile in water (0.1% formic acid), injection volume was 6 μL, and flow rate was 0.6 mL/min.
To prepare samples for analysis, serial concentrations were prepared by diluting the stock solution of analyte with a 50% acetonitrile in water solution. 5 μL working solutions (5, 10, 20, 50, 100, 500, 1000, 5000, and 10000 ng/mL) were added to 50 μL of the blank SD rat plasma to achieve calibration standards of ~0.5 to 1000 ng/ml (0.5, 1, 2, 5, 10, 50, 100, 500, and 1000 ng/ml) in a total volume of 55 μL. Five quality control samples at 1 ng/ml, 2 ng/ml, 5 ng/ml, 50 ng/mL, and 800 ng/ml for plasma were prepared independently of those used for the calibration curves. These QC samples were prepared on the day of analysis in the same way as calibration standards.
55 μL of standards, 55 μL of QC samples and 55 μL of unknown samples (50 μL of unknown rat plasma with 5 µL of blank solution) were added to 200 µL of acetonitrile containing IS mixture (verapamil) for precipitating protein respectively. The samples were then vortexed for 30 s. After centrifugation at 4° C., 3900 rpm for 15 min, the supernatant was diluted 3 times with water. 6 μL of diluted supernatant was injected into the LC/MS/MS system for quantitative analysis.

[1] = iv, 1 mg/kg, IV 1 mg/kg, individual animals
[2] = iv, 1 mg/kg, IV 1 mg/kg, mean of 3 animals
[3] = po, 5 mg/kg, PO 5 mg/kg, mean of 3 animals

SMILES: CCNC(=O)c1cc2c(-c3cc(C(C)(C)O)ccc3Oc3c(C)cc(F)cc3C)cn(C)c(=O)c2[nH]1 [ABBV-744]
- concentration at 0.083 h [1]: 351 ng/mL
- concentration at 0.083 h [2]: 337 ng/mL
- concentration at 0.25 h [1]: 248 ng/mL
- concentration at 0.25 h [2]: 268 ng/mL
- concentration at 0.5 h [1]: 191 ng/mL
- concentration at 0.5 h [2]: 203 ng/mL
- concentration at 1 h [1]: 158 ng/mL
- concentration at 1 h [2]: 154 ng/mL
- concentration at 2 h [1]: 103 ng/mL
- concentration at 2 h [2]: 110 ng/mL
- concentration at 4 h [1]: 48 ng/mL
- concentration at 4 h [2]: 52.9 ng/mL
- concentration at 8 h [1]: 12.6 ng/mL
- concentration at 8 h [2]: 15.3 ng/mL
- AUC(0-inf) [1]: 669 ng·h/mL
- AUC(0-t) [1]: 633 ng·h/mL
- half-life [1]: 1.99 h
- C0 [1]: 580 ng/mL
- MRT inf [1]: 2.47 h
- AUC(0-inf) [2]: 716 ng·h/mL
- AUC(0-t) [2]: 668 ng·h/mL
- half-life [2]: 2.12 h
- C0 [2]: 613 ng/mL
- MRT inf [2]: 2.65 h
- concentration at 0.083 h [3]: 1.61 ng/mL
- concentration at 0.25 h [3]: 19.3 ng/mL
- concentration at 0.5 h [3]: 43 ng/mL
- concentration at 1 h [3]: 59 ng/mL
- concentration at 2 h [3]: 89 ng/mL
- concentration at 4 h [3]: 127 ng/mL
- concentration at 8 h [3]: 113 ng/mL
- concentration at 24 h (po, 5 mg/kg, PO 5 mg/kg, 24 h, mean of 3 animals): 2.17 ng/mL
- Tmax (po, 5 mg/kg, PO 5 mg/kg, individual animals): 8 h
- AUC(0-t) [3]: 1730 ng·h/mL
- Cmax (po, 5 mg/kg, PO 5 mg/kg, mean of 3 animals, read-out: Cmax): 132 ng/mL
- Tmax [3]: 5.33 h
